The source of these data is article PMC10974622, “Hybrid Peptide-Alkoxyamine Drugs: A Strategy for the Development of a New Family of Antiplasmodial Drugs” (Molecules, 2024).

Molecules are shown by their SMILES. Like-named read-outs stand apart in the source and are kept apart here.

Series [1] concerns Vero cells. The following applies: cited from earlier work.
Series [2] concerns P. falciparum strain F32-ART (artemisinin-resistant). Briefly: microbe, parasite or virus in culture. Format: cell-based, Plasmodium falciparum. The following applies: for Selectivity Index CC50/IC50: cytotoxicity (Vero cells)/antiplasmodial activity (F32-ART) ratio. The text has this: The antimalarial activity of peptide-alkoxyamine hybrids was first evaluated in the in vitro antiproliferative test (IC50) using the artemisinin-resistant strain F32-ART (Table 2, Table S1). The roles of the N-substitution of the alkoxyamine moiety (TEMPO- or DBNO-based, for example, A3L/A8L, line 1/line 10), of the configuration (L or D of the peptide, A3L/A3D, line 1/line 2), of the N-protection of the peptide (A3L/A4L or A5L, line 1/ lines 3 and 5) were examined. According to standard rules in the malaria field, only molecules having IC50 values below 1 μM were considered active.
The F32-ART (artemisinin-resistant) strain and the F32-TEM (artemisinin-sensitive strain) were cultured according to Trager and Jensen in RPMI 1640 medium (Fisher Scientific, Illkirch, France) supplemented with 5% human serum (Etablissement français du Sang, Toulouse, France) at 2% hematocrit with type O human blood (Etablissement français du Sang, Toulouse, France), 37 °C, and 5% CO2 in a humidified atmosphere.
(§1) IC50 values corresponding to 50% inhibition of P. falciparum growth were determined by SYBR Green assay, and the assessment of cytotoxicity was performed on Vero cells (cell line from the kidney of a normal adult African green monkey), as previously published. The selectivity index corresponded to the cytotoxicity/activity ratio.

The test system of series [3] is F32-ART parasites. The series can be described thus: Parasitemia monitoring and parasite morphology upon drug exposure, F32-ART ring-stage parasites. Format: cell-based, Plasmodium falciparum. The note with it: 48 h exposure. Here is the method: The effect of hybrid compounds against Plasmodium parasites was assessed by the microscopic examination of parasite morphology upon drug exposure. For this purpose, parasites were synchronized at 0–4 h age by percoll-sorbitol treatment, 0–24 h age by sorbitol treatment, or at schizont stage by percoll treatment at the start of the experiment. Different treatment schedules were tested. In the case of multiple doses, parasite cultures were washed before each new drug addition.

Series [4] deals with F32-ART parasites at the quiescent stage. The series can be described thus: Quiescent-stage Survival Assay (QSA). Format: cell-based, Plasmodium falciparum. The note with it: 700 nM DHA 6 h/(DHA + molecule 7 µM) 48 h. As to the method: In this assay, parasites were exposed to dihydroartemisinin (DHA) alone to induce quiescence, prior the addition of the drug to be tested for 48 h, and then the parasite recrudescence was monitored over a maximum of 4 weeks. Activity against quiescent parasites was evidenced by a delay in recrudescence time over 6 days between the conditions “DHA 6 h / DHA 48 h” and “DHA 6 h/(DHA + molecule) 48 h”. Atovaquone was used as a positive control, and its activity against quiescent parasites was here confirmed, as expected, by an extended delay of 11 days in recrudescence time (Figure 5). By contrast, no activity of A8L and A3L against quiescent parasites was evidenced in the QSA, with similar recrudescence time between the conditions “DHA 6 h/DHA 48 h” and “DHA 6 h/(DHA + molecule) 48 h”. […] To understand this phenomenon, we explored the parasite response during treatment with these hybrid compounds.
The QSA was performed according to Reyser et al.. Briefly, ART-resistant ring-stage parasites at 3% parasitemia were exposed for 6 h to 700 nM of DHA (dihydroartemisinin) to induce quiescence or were exposed to no drugs (control condition). After that, the compound to be tested was added in both conditions […]. At the end of the treatment, the drugs were washed off with RPMI-1640, and parasites were replaced in drug-free conditions. Blood smears were performed to follow parasitemia until the day the cultures reached their starting parasitemia, defined as the recrudescence day. If after 30 days no parasite recrudescence was observed, then the data were censored. Data analysis was performed using Kaplan–Meier survival curves. Statistical significance was ascertained by using a log-rank (Mantel-Cox) test using GraphPad Prism 7 software (San Diego, CA, USA).

Series [5] is described as follows: in vitro. The note with it: African green monkey, Cytotoxicity CC50. Format: cell-based, African green monkey. As to the method:
as §1

Series [6] relates to Vero cells. Briefly: in vitro. Format: cell-based, African green monkey. The note with it: African green monkey. Here is the method: as §1
Series [7] deals with S. mansoni. Also on record: method as in doi:10.1021/cr00014a008. The following applies: 100 μg/mL, in 2 h, in vitro ref 22; cited from earlier work.
The nature of series [8]: Solubility in water. It is filed as physicochemical.
In series [9] the target is T1, chymotrypsin (Bos taurus, UniProt P00766).
T1 construct: purchased Worthington
Briefly: Enzymatic activation and homolysis monitored by EPR, chymotrypsin. The note with it: 37 °C. Format: biochemical. Here is the method: Due to the low solubility of A3L/D–A5L/D in water, suitable concentrations (ca. 0.1 mM) for EPR detection could not be reached. Thus, A7L was prepared, which afforded a carboxylate function at a physiological pH. […] As other PLMs were not available, chymotrypsin, a pancreatic protease that accepts substrates with Phe in the P1 position, was used to hydrolyse A7L. The release of the free alkoxyamine, which decomposed spontaneously and rapidly into alkyl radical R3• and nitroxide R1R2NO•, and the concentration in nitroxide was monitored with EPR (Figure 3).
Kinetics were performed in HEPES 50 mM buffer containing […] at 37 °C. Then, 2.5 mM of hemin (Santa Cruz biotechnology, Heidelberg, Germany) was added to scavenge the alkyl radicals. In one, kinetic Chymotrypsin (Worthington, OH, USA) was added. Activation and homolysis were monitored by reading the concentrations of released TEMPO using, versus time, a calibrated EPR spectrometer (EMX Nano, Bruker, Wissembourg, France).

Series [10] addresses PLM I (Plasmodium falciparum, UniProt P39898). The series can be described thus: Enzymatic activation monitored by EPR, PLM I. Format: biochemical.
Where [11] appears, read: Plasmodium falciparum, F32, read-out: Antiplasmodial Activity IC50, strain F32-ART, SYBR Green assay, mean ± SEM of 3 to 6 experiments.
Where [12] appears, read: read-out: Antiplasmodial Activity IC50, strain F32-ART, SYBR Green assay, mean ± SEM of 3 to 6 experiments.

Chain of PLM I (P39898 124-452): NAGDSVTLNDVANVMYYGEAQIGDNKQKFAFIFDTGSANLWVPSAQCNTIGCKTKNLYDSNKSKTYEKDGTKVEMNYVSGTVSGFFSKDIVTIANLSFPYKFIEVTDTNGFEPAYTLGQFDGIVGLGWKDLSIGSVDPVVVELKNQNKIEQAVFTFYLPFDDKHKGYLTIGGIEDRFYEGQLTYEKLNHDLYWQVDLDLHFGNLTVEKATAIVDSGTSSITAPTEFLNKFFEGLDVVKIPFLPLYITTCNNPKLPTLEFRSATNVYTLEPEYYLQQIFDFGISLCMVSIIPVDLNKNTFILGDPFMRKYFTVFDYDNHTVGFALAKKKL

By CC50 is commonly meant the concentration giving 50% cytotoxicity. One may read the IC50 as the concentration at which inhibition is half-maximal. `CC(ON1C(C)(C)CCCC1(C)C)c1ccc(NC(=O)[C@H](Cc2ccccc2)NC(=O)[C@@H](NC(=O)[C@H](Cc2ccccc2)NC(=O)OC(C)(C)C)C(C)C)cc1` (stereo partly drawn) [A3L, Boc-Phe-Val-Phe-anilide-TEMPO]: in series [1], the CC50 was more than 50 µM. Also, the IC50 in series [2] (setting [11]) stood at 0.3 ± 0.04 µM; in [2] (Plasmodium falciparum, F32, read-out: Antiplasmodial IC50, strain F32-ART), 0.27 µM. In [2], the “Selectivity Index CC50/IC50” value is on record as more than 165. Also, the “effect on parasitemia and parasite cell cycle” value in series [3] was “cytostatic-like effect”. In addition, the “activity against quiescent parasites in the QSA” value in [4] is listed as “no activity”.

In the case of `CC(ON1C(C)(C)CCCC1(C)C)c1ccc(NC(=O)[C@@H](Cc2ccccc2)NC(=O)[C@H](NC(=O)[C@H](N)Cc2ccccc2)C(C)C)cc1` (stereo partly drawn) [A4D], the CC50 in series [5] was 2.2 to 2.6 µM; in series [6] it was 2.6 ± 0.3 µM. For the same compound, the IC50 in [2] (setting [11]) was 2.2 to 2.6 µM; in [2] (setting [12]), 2.3 ± 0.3 µM. In addition, in series [2], the “Selectivity Index CC50/IC50” value turned out to be 1.1.

Turning to `CC(ON1C(C)(C)CCCC1(C)C)c1ccc(NC(=O)[C@H](Cc2ccccc2)NC(=O)[C@@H](NC(=O)[C@@H](N)Cc2ccccc2)C(C)C)cc1` (stereo partly drawn) [A4L], the CC50 in series [1] was more than 50 µM. For the same compound, in series [2] (setting [11]), the IC50 was more than 50 µM. Besides, the schistosomal population killed in series [7] was 50%.

With `CC(ON1C(C)(C)CCCC1(C)C)c1ccc(NC(=O)[C@H](Cc2ccccc2)NC(=O)[C@@H](NC(=O)[C@@H](N)Cc2ccccc2)C(C)C)cc1` (stereo partly drawn) [A5L], the CC50 in series [1] is more than 50 µM. In series [2] (setting [12]), the IC50 is more than 50 µM. Besides, the schistosomal population killed in [7] was 50%.

`CC(ON1C(C)(C)CCCC1(C)C)c1ccc(NC(=O)[C@H](Cc2ccccc2)NC(=O)[C@@H](NC(=O)[C@H](Cc2ccccc2)NC(=O)CCC(=O)O)C(C)C)cc1` (stereo partly drawn) [A7L, suc-Phe-Val-Phe-anilide-TEMPO]: the CC50 in series [1] is more than 50 µM. In addition, the IC50 in [2] (setting [11]) amounted to 5 ± 3 µM. Also, in [2], the “Selectivity Index CC50/IC50” value is listed as more than 10. In series [8], the “pH above which soluble” value was “above 5.5”. The “stability of the prodrug” value in [9] (absence of chymotrypsin) is “stable at 37 °C”. The “activation by protease, release of nitroxide (EPR)” value in [9] (presence of chymotrypsin, HEPES buffer) is reported as “activatable by chymotrypsin”. Also, in series [10], the “EPR signal of TEMPO in the presence of PLM I” value is on record as “no EPR signal of TEMPO could be observed”.

Turning to `CC(ON(C(C)(C)C)C(C)(C)C)c1ccc(NC(=O)[C@@H](Cc2ccccc2)NC(=O)[C@H](NC(=O)[C@H](N)Cc2ccccc2)C(C)C)cc1` (stereo partly drawn) [AW231], the CC50 in [6] was determined as 6.6 ± 0.4 µM. Moreover, the IC50 in series [2] (setting [12]) came out at 4.48 ± 0.29 µM.

Consider `C[C@H]1[C@@H](O)O[C@@H]2O[C@@]3(C)CC[C@H]4[C@H](C)CC[C@@H]1[C@@]24OO3` [DHA, dihydroartemisinin, reference compound], for which the “effect on parasitemia and parasite cell cycle” value in series [3] is “high parasitemia decrease”.
